Laboratory results from patent US6805878B2, “Transdermal administration of ACE inhibitors” (Noven Pharmaceuticals, Inc., priority 2001, dated 2004).
Structures can show the parent of a compound that is named as a salt.

Legend:
[1] = Human cadaver skin permeation (flux) study, modified Franz diffusion cells; assay type: in vitro ADME; conditions: for flux of a dermal composition: carrier composition of Example 2, different cadaver skin, FIG. 1; for flux through skin (in words): enalapril ethyl ester prodrug compared with enalapril maleate form
Procedure: (§1) Human cadaver skin permeation studies were performed to quantitatively determine the effective permeation of enalapril ethyl ester through the stratum corneum. The stratum corneum was obtained from split thickness, cryo-preserved cadaver skin by the heat separation technique (˜55°). Samples of 5/16″ diameter were cut from the laminate, in triplicate, and mounted onto ½″ cut pieces of the stratum corneum. These samples were then placed on modified Franz diffusion cells. The receptor was filled with 7.5 mL of 0.9% NaCl and 0.01% NaN3 in deionized water. The cells were maintained at a constant 32° C. and were magnetically stirred at approximately 300 rpm. At specified time points, samples of the receptor phase were taken with complete replacement of the receptor phase. These samples were quantified by high-performance liquid chromatography (HPLC) utilizing Waters HPLC instrumentation. C-8(15 cm×4.6 mm) 5 μm particle size columns ([…] made by MetaChem Technologies, Inc.; Torrance, Calif.) were used at 50° C. (column temperature). The mobile phase contained 50% acetonitrile: 50% buffer (10 mM KH2PO4, pH=2.7). The detection wavelength was 214 nm. HPLC flow rate is 1.5 mL/min.

[2] = test system: esterase enzyme in the skin; assay: Hydrolysis of penetrated prodrug in the skin after permeation; assay type: in vitro ADME, Human
Procedure: as §1
More than 50% of the penetrated enalapril ethyl ester was hydrolyzed into enalaprilat after permeation through the skin.

| flux of a dermal composition [1] | flux through skin (in words) [1] | penetrated enalapril ethyl ester hydrolyzed into enalaprilat ([2]; after permeation through the skin) | hydrolysis of the ethyl ester group on the proline moiety ([2]; by an esterase enzyme in the skin) | SMILES |
| --- | --- | --- | --- | --- |
| 4.8 µg/cm²/h | significantly greater | More than 50% | selectively hydrolyzed | CCOC(=O)[C@H](CCc1ccccc1)N[C@@H](C)C(=O)N1CCC[C@H]1C(=O)OCC [enalapril ethyl ester] |
| 0.2 μg/cm^2/sec | negligible |  |  | CCOC(=O)[C@H](CCc1ccccc1)N[C@@H](C)C(=O)N1CCC[C@H]1C(=O)O [enalapril maleate, reference compound] |
